According to patent US12522597B2, “Methods and compositions for modulating splicing” (Skyhawk Therapeutics, Inc., priority 2019, dated 2026):

Key:
[1] = tested on: MDR1; experiment: MDCK-MDR1 permeability assay (BBB penetration potential); assay type: in vitro ADME; details: dog; for efflux ratio at 120 min, 5 μM: MDCK-MDR1, pH 7.4, MDCK-MDR1: Efflux; for Papp A→B at 120 min, 5 μM: MDCK-MDR1, pH 7.4, MDCK-MDR1: Papp A-B; for Papp B→A at 120 min, 5 μM: MDCK-MDR1, pH 7.4, MDCK-MDR1: Papp B-A
Method: (§1) Each determination is performed in duplicate. […] Analytical conditions are outlined below.

[2] = tested on: MDR1-MDCK cell monolayers; experiment: as above; assay type: in vitro ADME; details: dog, MDCK-MDR1, 120 min, 5 μM, pH 7.4
Method: as §1

[3] = tested on: mHTT protein; experiment: mHTT protein assay (2B7-MW1, Mesoscale Discovery); assay type: cell-based, human; details: GM04724 (CAG 70/20) Huntington's disease patient lymphoblast cells, 48 hours, 2B7-MW1 MSD; read-out: HTT Potency - Protein EC50 mHTT (average)
Method: Compounds are tested on GM04724 (CAG 70/20) Huntington's disease patient lymphoblast cells at doses ranging from 10 μM to 0.6 nM. 4,500 cells/well are seeded in 384 well plates. One plate replica is carried out for parallel viability testing by CellTiter Glo (CTG). Compounds are incubated for 48 hours, mHTT protein levels are assessed by the 2B7-MW1 assay via Mesoscale Discovery (MSD) as previously reported (Macdonald et al., 2014). The antibody pair is comprised of previously characterized monoclonals (2B7 and MW1) interrogating two regions for HTT conformation and biological properties: the N17 domain and the polyQ domain (Baldo et al., 2012; Ko et., 2001). 2B7-MW1 is dependent on subject/animal specific levels of HTT at the time of treatment. 2B7-MW1 is dependent on polyQ expansion (e.g., the higher the expansion the higher the signal) and on mHTT size (e.g., a similar polyQ will give higher signal with smaller HTT size). The viability readout is carried out by CTG according to the manufacturer's instructions.

Row | Compound | efflux ratio at 120 min, 5 μM [1] | Papp A→B at 120 min, 5 μM [1] | Papp B→A at 120 min, 5 μM [1] | MDCK-MDR1: % Recov A-B [2] | MDCK-MDR1: % Recov B-A [2] | EC50 [3]
1 | C[C@@]12CC[C@@](C)(N1)[C@@H](F)[C@@H](Oc1ccc(-c3ccc(-n4cccn4)cc3O)nn1)C2 (single isomer, unassigned) [153-ENT2] | 3 | 7.16 ×10⁻⁶ cm/s | 24.7 ×10⁻⁶ cm/s | 60% | 71% | 16 to 50 nM
2 | Cc1cc(-c2ccc(-c3ccc(O[C@H]4C[C@@H]5CCC[C@@H](N5)[C@H]4F)nn3)c(O)c2)cnn1 (single isomer, unassigned) [90-ENT2] | 34 | 1.92 ×10⁻⁶ cm/s | 64.6 ×10⁻⁶ cm/s | 101% | 97% | 101 to 500 nM
3 | O=c1cc(-c2cc(O)c(-c3ccc(O[C@@H]4C[C@H]5CCC[C@H](N5)[C@@H]4F)nn3)cc2F)cc[nH]1 (single isomer, unassigned) [57-ENT1] | 73 | 0.26 ×10⁻⁶ cm/s | 18.9 ×10⁻⁶ cm/s | 94% | 101% | 101 to 500 nM
4 | Oc1cc2cccnc2cc1-c1ccc(O[C@H]2C[C@@H]3CCC[C@@H](N3)[C@H]2F)nn1 (single isomer, unassigned) [105-ENT2] | 6 | 6.58 ×10⁻⁶ cm/s | 37.2 ×10⁻⁶ cm/s | 91% | 70% | 101 to 500 nM
5 | Oc1cc(-c2ccnnc2)ccc1-c1ccc(O[C@H]2C[C@@H]3CCC[C@@H](N3)[C@H]2F)nn1 (single isomer, unassigned) [87-ENT2] | 14 | 3.9 ×10⁻⁶ cm/s | 56.1 ×10⁻⁶ cm/s | 105% | 108% | 101 to 500 nM
6 | Cc1ccc(-c2ccc(-c3ccc(O[C@@H]4C[C@H]5CCC[C@H](N5)[C@@H]4F)nn3)c(O)c2)cn1 (single isomer, unassigned) [67-ENT1] | 7 | 4.42 ×10⁻⁶ cm/s | 29.8 ×10⁻⁶ cm/s | 44% | 62% | 101 to 500 nM
7 | Cc1nnc(-c2ccc(-c3ccc(O[C@@H]4C[C@H]5CCC[C@H](N5)[C@@H]4F)nn3)c(O)c2)o1 (single isomer, unassigned) [94-ENT1] | 7 | 6.2 ×10⁻⁶ cm/s | 41.2 ×10⁻⁶ cm/s | 104% | 70% | 101 to 500 nM
8 | Oc1cc(-c2nncs2)ccc1-c1ccc(O[C@@H]2C[C@H]3CCC[C@H](N3)[C@@H]2F)nn1 (single isomer, unassigned) [116-ENT1] | 8 | 7.76 ×10⁻⁶ cm/s | 59.2 ×10⁻⁶ cm/s | 88% | 91% | 16 to 50 nM
9 | Oc1cc(-c2ccc3nncn3c2)ccc1-c1ccc(O[C@H]2C[C@@H]3CCC[C@@H](N3)[C@H]2F)nn1 (single isomer, unassigned) [73-ENT2] | 84 | 0.49 ×10⁻⁶ cm/s | 41.3 ×10⁻⁶ cm/s | 90% | 87% | 101 to 500 nM
10 | Oc1cc(-c2nncs2)ccc1-c1ccc(O[C@H]2C[C@@H]3CC[C@@H](N3)[C@H]2F)nn1 (single isomer, unassigned) [141-ENT1] | 6 | 9.97 ×10⁻⁶ cm/s | 59.7 ×10⁻⁶ cm/s | 111% | 120% | 101 to 500 nM
11 | Cc1cncc(-c2ccc(-c3ccc(O[C@H]4C[C@@H]5CCC[C@@H](N5)[C@H]4F)nn3)c(O)c2)c1 (single isomer, unassigned) [89-ENT2] | 13 | 2.61 ×10⁻⁶ cm/s | 34 ×10⁻⁶ cm/s | 55% | 70% | 501 to 10000 nM
12 | Oc1cc2nccnc2cc1-c1ccc(O[C@H]2C[C@@H]3CCC[C@@H](N3)[C@H]2F)nn1 (single isomer, unassigned) [104-ENT2] | 5 | 10.1 ×10⁻⁶ cm/s | 53.6 ×10⁻⁶ cm/s | 93% | 99% | 501 to 10000 nM
13 | Oc1cc(-c2cn[nH]c2)ccc1-c1ccc(O[C@H]2C[C@@H]3COC[C@@H](N3)[C@H]2F)nn1 (single isomer, unassigned) [123-ENT2] | 10 | 7.03 ×10⁻⁶ cm/s | 69.8 ×10⁻⁶ cm/s | 87% | 93% | 101 to 500 nM
14 | CN(C)C(=O)c1cc2cc(O)c(-c3ccc(O[C@H]4C[C@]5(C)CCC[C@@](C)(N5)[C@H]4F)nn3)cc2o1 (single isomer, unassigned) [155-ENT2] | 17 | 3.84 ×10⁻⁶ cm/s | 63.7 ×10⁻⁶ cm/s | 102% | 102% | 501 to 10000 nM
15 | Oc1cc(-n2cccn2)ccc1-c1ccc(O[C@@H]2C[C@H]3CC[C@H](N3)[C@@H]2F)nn1 (single isomer, unassigned) [35-ENT1] | 4 | 8.31 ×10⁻⁶ cm/s | 32.8 ×10⁻⁶ cm/s | 77% | 87% | 101 to 500 nM
16 | Oc1cc(-c2ccccn2)ccc1-c1ccc(O[C@H]2C[C@@H]3CCC[C@@H](N3)[C@H]2F)nn1 (single isomer, unassigned) [77-ENT2] | 5 | 6.32 ×10⁻⁶ cm/s | 30.2 ×10⁻⁶ cm/s | 57% | 79% | 101 to 500 nM
17 | Oc1cc(-c2ccn3cnnc3c2)ccc1-c1ccc(O[C@H]2C[C@@H]3CCC[C@@H](N3)[C@H]2F)nn1 (single isomer, unassigned) [86-ENT2] | 48 | 0.42 ×10⁻⁶ cm/s | 20.3 ×10⁻⁶ cm/s | 75% | 74% | 101 to 500 nM
18 | Cc1cc(-c2ccc(-c3ccc(O[C@H]4C[C@@H]5CCC[C@@H](N5)[C@H]4F)nn3)c(O)c2)cs1 (single isomer, unassigned) [101-ENT2] | 1 | 0.92 ×10⁻⁶ cm/s | 0.55 ×10⁻⁶ cm/s | 20% | 53% | 16 to 50 nM
19 | Oc1cc(-c2nnco2)c(F)cc1-c1ccc(O[C@H]2C[C@@H]3CCC[C@@H](N3)[C@H]2F)nn1 (single isomer, unassigned) [143-ENT1] | 8 | 6.56 ×10⁻⁶ cm/s | 55.7 ×10⁻⁶ cm/s | 81% | 93% | 51 to 100 nM
20 | Cn1ccc(-c2ccc(-c3ccc(O[C@@H]4C[C@H]5CCC[C@H](N5)[C@@H]4F)nn3)c(O)c2)nc1=O (single isomer, unassigned) [107-ENT1] | 90 | 0.11 ×10⁻⁶ cm/s | 10 ×10⁻⁶ cm/s | 90% | 90% | 101 to 500 nM
